From patent US20240309016A1, “MACROCYCLIC HETEROCYCLE COMPOUNDS AND USE THEREOF” (TAKEDA PHARMACEUTICAL COMPANY LIMITED, priority 2023, published 2024)

These compounds were tested against T1, human OX2 receptor (Homo sapiens, UniProt O43614) (assay: Measurement of orexin type 2 receptor agonist activity (Experimental Example 2; Fluo-4 AM calcium fluorescence, FDSS μCELL)). Details: compound at 3 μM; CHO cells expressing human OX2 receptor; DMSO = 0%, 10 nM orexin A (human) = 100%.
T1 construct: expressed in transfected cells
T1 sequence (O43614 1-444): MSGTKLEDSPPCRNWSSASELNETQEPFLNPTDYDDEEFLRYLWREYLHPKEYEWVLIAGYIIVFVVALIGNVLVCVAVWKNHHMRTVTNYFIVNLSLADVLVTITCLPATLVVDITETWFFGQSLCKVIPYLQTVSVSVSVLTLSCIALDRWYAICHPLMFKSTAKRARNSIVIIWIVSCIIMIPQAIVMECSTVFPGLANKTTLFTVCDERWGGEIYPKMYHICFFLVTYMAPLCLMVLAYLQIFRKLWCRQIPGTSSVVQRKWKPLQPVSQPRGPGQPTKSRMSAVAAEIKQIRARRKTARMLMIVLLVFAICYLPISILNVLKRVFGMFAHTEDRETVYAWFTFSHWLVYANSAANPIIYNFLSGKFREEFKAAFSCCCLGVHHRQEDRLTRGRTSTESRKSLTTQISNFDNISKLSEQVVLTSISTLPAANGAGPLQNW
Assay type: cell-based
Protocol: In order to obtain cell clones that stably express human orexin type 2 receptor, human orexin type 2 (residues 1-444, NCBI Reference Sequence: AK314279) was constructed in a pcDNA3.1 (+) vector (Invitrogen) to express in mammalian cells. This plasmid DNA was transfected into CHO-K1 cells by electroporation, and stable clones were obtained by limiting dilution using resistance to G418 as a selection marker.
CHO cells in which human OX2 receptor was forcibly expressed were seeded at 10,000 cells/well into a 384-well black transparent bottom plate (BD falcon), and were incubated at 37° C., 5% CO2 for 1 day after incubation at room temperature for 30 minutes. After removing the cell plate medium, assay buffer containing calcium indicator A (HBSS (Thermo Fisher Scientific), 20 mM HEPES (Thermo Fisher Scientific), 0.1% BSA (Sigma-Aldrich), 2.5 μg/mL Fluo-4 AM (Dojin Kagaku), 0.08% Pluronic F127 (Dojin Kagaku), 1.25 mM probenecid (Dojin Kagaku)) was added at 30 μL/well. After incubation in a 5% CO2 incubator at 37° C. for 30 minutes, it was incubated at room temperature for another 30 minutes. Add 10 μL/well of the test compound diluted with assay buffer B (HBSS, 20 mM HEPES, 0.1% BSA), and use FDSS μCELL (Hamamatsu Photonics) to measure the fluorescence value every 1 second for 1 minute, and then every 2 seconds for 1 minute. It was measured for 1 minute and 40 seconds. The amount of fluorescence value when DMSO is added instead of the test compound is defined as 0%, and the amount of fluorescence value when orexin A (human) (Peptide Institute) with a final concentration of 10 nM is added is defined as 100%. The activity (%) of the test compound was calculated. Table 2-1, 2-2, 2-3, and 2-4 show the activity of each compound at a concentration of 3 μM.

OX2R agonist activity (3 μM, %) | Structure (SMILES)
93% | Cc1ccc2nc1Oc1cc(ccc1F)C[C@H]1[C@@H](NS(C)(=O)=O)CCN1C(=O)NC2 (relative stereo) [Example 9, N-[rel-(15aR,16R)-11-fluoro-7-methyl-1-oxo-2,3,15a,16,17,18-hexahydro-1H,15H-4,8-(azeno)-10,14-(metheno)pyrrolo[1,2-j][1,8,10]oxadiazacyclo-heptadecin-16-yl]methanesulfonamide (optical isomer)]
102% | Cc1ccc2nc1Oc1cc(ccc1F)C[C@H]1[C@@H](NS(C)(=O)=O)C(F)(F)CN1C(=O)NC2 (relative stereo) [Example 86, N-[rel-(15aS,16R)-11,17,17-trifluoro-7-methyl-1-oxo-2,3,15a,16,17,18-hexahydro-1H,15H-4,8-(azeno)-14,10-(metheno)pyrrolo[1,2-j][1,8,10]oxadiazacyclo-heptadecin-16-yl]methanesulfonamide (optical isomer)]
108% | CCS(=O)(=O)N[C@@H]1[C@@H]2Cc3cc(ccc3F)Oc3nc(ccc3C)CNC(=O)N2CC1(F)F (relative stereo) [Example 90, N-[rel-(15aS,16R)-13,17,17-trifluoro-7-methyl-1-oxo-2,3,15a,16,17,18-hexahydro-1H,15H-4,8-(azeno)-14,10-(metheno)pyrrolo[1,2-j][1,8,10]oxadiazacyclohepta-decin-16-yl]ethanesulfonamide (optical isomer)]
101% | CCS(=O)(=O)N[C@H]1CCN2C(=O)NCc3ccc(C)c(n3)Oc3cccc(c3)C[C@@H]12 [Example 3, N-[(15aS,16S)-7-methyl-1-oxo-2,3,15a,16,17,18-hexahydro-1H,15H-4,8-(azeno)-10,14-(metheno)pyrrolo[1,2-j][1,8,10]oxadiazacyclo-heptadecin-16-yl]ethanesulfonamide]
100% | CS(=O)(=O)N[C@H]1CCN2C(=O)NCc3ccc(C(F)F)c(n3)Oc3cccc(c3)C[C@@H]12 [Example 8, N-[(15aS,16S)-7-(difluoromethyl)-1-oxo-2,3,15a,16,17,18-hexahydro-1H,15H-4,8-(azeno)-14,10-(metheno)pyrrolo[1,2-j][1,8,10]oxadiazacyclo-heptadecin-16-yl]methanesulfonamide]
99% | CS(=O)(=O)N[C@H]1CCN2C(=O)NCc3ccc(Cl)c(n3)Oc3cccc(c3)C[C@@H]12 [Example 16, N-[(15aS,16S)-7-chloro-1-oxo-2,3,15a,16,17,18-hexahydro-1H,15H-4,8-(azeno)-10,14-(metheno)pyrrolo[1,2-j][1,8,10]oxadiazacyclo-heptadecin-16-yl]methanesulfonamide]

The next lines start with the compound.

Structure (SMILES) | OX2R agonist activity (3 μM, %)
CCS(=O)(=O)N[C@@H]1[C@@H]2Cc3cccc(c3)Oc3nc(ccc3Cl)CNC(=O)N2CC1(F)F (relative stereo) [Example 53, N-[rel-(15aR,16S)-7-chloro-17,17-difluoro-1-oxo-2,3,15a,16,17,18-hexahydro-1H,15H-4,8-(azeno)-14,10-(metheno)pyrrolo[1,2-j][1,8,10]oxadiazacyclo-heptadecin-16-yl]ethanesulfonamide (optical isomer)] | 100%
CCS(=O)(=O)N[C@@H]1[C@@H]2Cc3cc(F)cc(c3)Oc3nc(ccc3C)CNC(=O)N2CC1(F)F (relative stereo) [Example 89, N-[rel-(15aS,16R)-12,17,17-trifluoro-7-methyl-1-oxo-2,3,15a,16,17,18-hexahydro-1H,15H-4,8-(azeno)-14,10-(metheno)pyrrolo[1,2-j][1,8,10]oxadiazacyclo-heptadecin-16-yl]ethanesulfonamide (optical isomer)] | 114%
CCS(=O)(=O)N[C@H]1[C@@H](F)CN2C(=O)COc3ccc(Cl)c(n3)Oc3cc(ccc3F)C[C@@H]12 (relative stereo) [Example 91, N-[rel-(15aR,16S,17R)-7-chloro-11,17-difluoro-1-oxo-1,2,15a,16,17,18-hexahydro-15H-4,8-(azeno)-14,10-(metheno)pyrrolo[1,2-d][1,12,4]dioxazacyclohepta-decin-16-yl]ethanesulfonamide (optical isomer)] | 106%
CS(=O)(=O)N[C@@H]1[C@@H]2Cc3ccc(F)c(c3)Oc3nc(ccc3Cl)OCC(=O)N2CC1(F)F (relative stereo) [Example 95, N-[rel-(15aS,16R)-7-chloro-11,17,17-trifluoro-1-oxo-1,2,15a,16,17,18-hexahydro-15H-4,8-(azeno)-14,10-(metheno)pyrrolo[1,2-d][1,12,4]dioxazacyclo-heptadecin-16-yl]methanesulfonamide (optical isomer)] | 103%
CS(=O)(=O)N[C@@H]1[C@@H]2Cc3cccc(c3)Oc3nc(ccc3C(F)F)[C@@H]3C[C@@H]3C(=O)N2CC1(F)F (single isomer, unassigned) [Example 107] | 108%
Cc1ccc2nc1Oc1cccc(c1F)C[C@H]1[C@@H](NS(=O)(=O)N(C)C)C(F)(F)CN1C(=O)NC2 [Example 11, N,N-dimethyl-N′-[(15aS,16R)-17,17,20-trifluoro-7-methyl-1-oxo-2,3,15a,16,17,18-hexahydro-1H,15H-4,8-(azeno)-14,10-(metheno)pyrrolo[1,2-j][1,8,10]oxadiazacyclo-heptadecin-16-yl]sulfuric diamide] | 98%
CS(=O)(=O)N[C@H]1[C@@H](F)CN2C(=O)NCc3ccc(Cl)c(c3)Oc3cccc(c3F)C[C@@H]12 [Example 12, N-[(15aS,16R,17S)-7-chloro-17,20-difluoro-1-oxo-2,3,15a,16,17,18-hexahydro-1H,15H-4,8:14,10-di(metheno)pyrrolo[1,2-j][1,8,10]oxadiazacyclo-heptadecin-16-yl]methanesulfonamide] | 99%
CN(C)S(=O)(=O)N[C@@H]1[C@@H]2Cc3cccc(c3F)Oc3nc(ccc3Cl)CNC(=O)N2CC1(F)F [Example 13, N′-[(15aS,16R)-7-chloro-17,17,20-trifluoro-1-oxo-2,3,15a,16,17,18-hexahydro-1H,15H-4,8-(azeno)-14,10-(metheno)pyrrolo[1,2-j][1,8,10]oxadiazacyclo-heptadecin-16-yl]-N,N-dimethylsulfuric diamide] | 99%
CS(=O)(=O)N[C@@H]1[C@@H]2Cc3cccc(c3F)Oc3nc(ccc3Cl)CNC(=O)N2CC1(F)F [Example 14, N-[(15aS,16R)-7-chloro-17,17,20-trifluoro-1-oxo-2,3,15a,16,17,18-hexahydro-1H,15H-4,8-(azeno)-14,10-(metheno)pyrrolo[1,2-j][1,8,10]oxadiazacyclo-heptadecin-16-yl]methanesulfonamide] | 99%
CS(=O)(=O)N[C@H]1[C@@H](F)CN2C(=O)NCc3ccc(Cl)c(n3)Oc3cccc(c3F)C[C@@H]12 [Example 15, N-[(15aS,16R,17S)-7-chloro-17,20-difluoro-1-oxo-2,3,15a,16,17,18-hexahydro-1H,15H-4,8-(azeno)-14,10-(metheno)pyrrolo[1,2-j][1,8,10]oxadiazacyclo-heptadecin-16-yl]methanesulfonamide] | 104%
CCS(=O)(=O)N[C@@H]1[C@@H]2Cc3cccc(c3F)Oc3nc(ccc3Cl)CNC(=O)N2CC1(F)F [Example 17, N-[(15aS,16R)-7-chloro-17,17,20-trifluoro-1-oxo-2,3,15a,16,17,18-hexahydro-1H,15H-4,8-(azeno)-14,10-(metheno)pyrrolo[1,2-j][1,8,10]oxadiazacyclo-heptadecin-16-yl]ethanesulfonamide] | 100%
CS(=O)(=O)N[C@H]1[C@@H](F)CN2C(=O)NCc3ccc(C(F)F)c(n3)Oc3cccc(c3F)C[C@@H]12 [Example 18, N-[(15aS,16R,17S)-7-(difluoromethyl)-17,20-difluoro-1-oxo-2,3,15a,16,17,18-hexahydro-1H,15H-8,4-(azeno)-10,14-(metheno)pyrrolo[1,2-j][1,8,10]oxadiazacyclo-heptadecin-16-yl]methanesulfonamide] | 104%
